Assay [1] has as its target T1, recombinant human calcitonin receptor (hCT-R) (Homo sapiens, UniProt P30988).
T1 construct: host or cells: human astrocytoma cell line 1321N1
T1 sequence (P30988 25-474): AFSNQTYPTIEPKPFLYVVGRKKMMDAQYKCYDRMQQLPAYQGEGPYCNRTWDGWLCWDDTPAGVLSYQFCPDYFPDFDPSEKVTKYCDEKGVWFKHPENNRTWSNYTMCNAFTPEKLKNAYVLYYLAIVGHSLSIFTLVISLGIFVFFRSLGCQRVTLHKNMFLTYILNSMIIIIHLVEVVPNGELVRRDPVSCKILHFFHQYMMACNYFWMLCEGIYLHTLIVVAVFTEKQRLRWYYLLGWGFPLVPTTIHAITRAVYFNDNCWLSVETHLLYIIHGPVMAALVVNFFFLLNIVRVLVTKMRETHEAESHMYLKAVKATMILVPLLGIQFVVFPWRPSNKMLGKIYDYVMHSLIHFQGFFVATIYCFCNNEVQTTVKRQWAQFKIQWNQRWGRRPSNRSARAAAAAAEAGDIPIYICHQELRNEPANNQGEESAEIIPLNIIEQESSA
Description: hCT-R cAMP assay (AlphaScreen) in 1321N1 cells. Format: cell-based. The settings on record: cAMP formation, 45 min stimulation. The procedure, abridged:
(§1)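 1321N1 astrocytoma cells expressing recombinant human calcitonin receptor alone or with RAMP3 (AMY3) stimulated 45 min at room temperature with peptide in IBMX-containing buffer. cAMP quantified by AlphaScreen after 1 h bead incubation; EC50 fitted from at least 7 concentrations.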
Background: Changes in cAMP serve as a functional read-out for many G protein-coupled receptors.

Assay [2] concerns the target T2, recombinant human amylin 3 receptor (hAMYR3) (Homo sapiens, UniProt O60896+P30988).
T2 construct: host or cells: human astrocytoma cell line 1321N1
T2 sequence (P30988 25-474): T1 sequence (P30988 25-474)
T2 sequence (O60896 24-148 partner): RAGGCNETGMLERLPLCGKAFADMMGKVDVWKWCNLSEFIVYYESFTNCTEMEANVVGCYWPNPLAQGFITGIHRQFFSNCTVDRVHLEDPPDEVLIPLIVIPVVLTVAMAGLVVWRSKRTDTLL
Put plainly: hAMYR3 cAMP assay (AlphaScreen) in 1321N1 cells. The assay is classed as cell-based. The settings on record: cAMP formation, 45 min stimulation. The gist of the method: as §1

Here are results for six compounds from patent US11382956B2, “Amylin analogues” (Zealand Pharma A/S, priority 2016, dated 2022).

Structures are written as SMILES. Numbered stars: 1 amine (or outer) side, 2 acyl side, 3 side chain; on linkers, the order of the positions; unused ones are H or OH. Bridge positions count the residues as written; N and C are the ends. Square brackets hold non-standard residues; d marks the D form. Peptide text beside a SMILES is read from it. * marks the point of attachment. C20 diacid = O=C(O)CCCCCCCCCCCCCCCCCCC(=O)*; γGlu = O=C(O)[C@H](CCC(=O)[*:2])N[*:1]; Hyp = O=C(O)[C@@H]1C[C@@H](O)CN1; NMeI = CC[C@H](C)[C@H](NC)C(=O)O; Aad = N[C@@H](CCCC(=O)O)C(=O)O; Orn = NCCC[C@H](N)C(=O)O; Dab = NCC[C@H](N)C(=O)O; Dap = NC[C@H](N)C(=O)O; Sar = CNCC(=O)O

With `CC[C@H](C)[C@@H](C(=O)N[C@@H](CC(C)C)C(=O)N[C@@H](CO)C(=O)N[C@@H](CO)C(=O)N[C@H](C(=O)N[C@@H](CCC(=O)O)C(=O)N[C@H](C(=O)NCC(=O)N[C@@H](CO)C(=O)N[C@@H](CC(N)=O)C(=O)N[C@H](C(=O)N1C[C@H](O)C[C@H]1C(N)=O)[C@@H](C)O)C(C)C)[C@@H](C)O)N(C)C(=O)[C@H](C)NC(=O)CN(C)C(=O)[C@H](Cc1ccccc1)NC(=O)[C@H](C)NC(=O)[C@H](C)NC(=O)[C@H](CCCNC(=N)N)NC(=O)[C@H](CCC(N)=O)NC(=O)[C@H](CC(C)C)NC(=O)[C@H](Cc1ccccc1)NC(=O)[C@H](CCCC(=O)O)NC(=O)[C@H](C)NC(=O)[C@H](CC(C)C)NC(=O)[C@H](CCCNC(=N)N)NC(=O)[C@H](CCC(=O)O)NC(=O)[C@@H](NC(=O)[C@H](C)NC(=O)[C@@H]1CCCCNC(=O)C[C@H](NC(=O)[C@H](CCCNC(=N)N)NC(=O)CC[C@H](NC(=O)CCCCCCCCCCCCCCCCCCC(=O)O)C(=O)O)C(=O)NCC(=O)N[C@@H]([C@@H](C)O)C(=O)N[C@@H](C)C(=O)N[C@@H]([C@@H](C)O)C(=O)N1)[C@@H](C)O` [Compound 31, [19CD]-isoGlu-RD()GTATK()ATERLA-Aad-FLQRAAF-Gly(Me)-A-Ile(Me)-LSSTEVGSNT-Hyp-NH2] ({C20 diacid-γGlu}-RDGTATKATERLA[Aad]FLQRAAF[Sar]A[NMeI]LSSTEVGSNT[Hyp]-NH2; lactam 2-7), the values for the EC50 in assay [1] and in assay [2] were 0.227 nM and 0.066 nM, respectively.

As to `CC[C@H](C)[C@@H](C(=O)N[C@@H](CC(C)C)C(=O)N[C@@H](CO)C(=O)N[C@@H](CO)C(=O)N[C@H](C(=O)N[C@@H](CCC(=O)O)C(=O)N[C@H](C(=O)NCC(=O)N[C@@H](CO)C(=O)N[C@@H](CC(N)=O)C(=O)N[C@H](C(=O)N1C[C@H](O)C[C@H]1C(N)=O)[C@@H](C)O)[C@@H](C)O)[C@@H](C)O)N(C)C(=O)[C@H](C)NC(=O)CN(C)C(=O)[C@H](Cc1ccccc1)NC(=O)[C@H](CO)NC(=O)[C@H](CO)NC(=O)[C@H](CCCNC(=N)N)NC(=O)[C@H](CCC(N)=O)NC(=O)[C@H](CC(C)C)NC(=O)[C@H](Cc1ccccc1)NC(=O)[C@H](CC(=O)O)NC(=O)[C@H](C)NC(=O)[C@H](CC(C)C)NC(=O)[C@H](CCCNC(=N)N)NC(=O)[C@H](CCC(N)=O)NC(=O)[C@@H](NC(=O)[C@H](C)NC(=O)[C@@H]1CCCCNC(=O)C[C@H](NC(=O)[C@H](CCCNC(=N)N)NC(=O)CC[C@H](NC(=O)CCCCCCCCCCCCCCCCCCC(=O)O)C(=O)O)C(=O)NCC(=O)N[C@@H]([C@@H](C)O)C(=O)N[C@@H](C)C(=O)N[C@@H]([C@@H](C)O)C(=O)N1)[C@@H](C)O` [Compound 42, [19CD]-isoGlu-RD()GTATK()ATQRLADFLQRSSF-Gly(Me)-A-Ile(Me)-LSSTETGSNT-Hyp-NH2] ({C20 diacid-γGlu}-RDGTATKATQRLADFLQRSSF[Sar]A[NMeI]LSSTETGSNT[Hyp]-NH2; lactam 2-7), the 50% effective concentration (EC50) (usually the midpoint of the concentration-response curve) in assay [1] is 0.006 nM; in assay [2] it was 0.003 nM.

In the case of `CC[C@H](C)[C@@H](C(=O)N[C@@H](CC(C)C)C(=O)N[C@@H](CO)C(=O)N[C@@H](CO)C(=O)N[C@H](C(=O)N[C@@H](CCC(=O)O)C(=O)N[C@H](C(=O)NCC(=O)N[C@@H](CO)C(=O)N[C@@H](CC(N)=O)C(=O)N[C@H](C(=O)N1C[C@H](O)C[C@H]1C(N)=O)[C@@H](C)O)C(C)C)[C@@H](C)O)N(C)C(=O)[C@H](C)NC(=O)CN(C)C(=O)[C@H](Cc1ccccc1)NC(=O)[C@H](CO)NC(=O)[C@H](CO)NC(=O)[C@H](CCCNC(=N)N)NC(=O)[C@H](CCC(N)=O)NC(=O)[C@H](CC(C)C)NC(=O)[C@H](Cc1ccccc1)NC(=O)[C@H](Cc1c[nH]cn1)NC(=O)[C@H](C)NC(=O)[C@H](CC(C)C)NC(=O)[C@H](CCCNC(=N)N)NC(=O)[C@H](CCC(=O)O)NC(=O)[C@@H](NC(=O)[C@H](C)NC(=O)[C@@H]1CC(=O)NC[C@H](NC(=O)[C@H](CCCNC(=N)N)NC(=O)CC[C@H](NC(=O)CCCCCCCCCCCCCCCCCCC(=O)O)C(=O)O)C(=O)NCC(=O)N[C@@H]([C@@H](C)O)C(=O)N[C@@H](C)C(=O)N[C@@H]([C@@H](C)O)C(=O)N1)[C@@H](C)O` [Compound 45, [19CD]-isoGlu-R-Dap()-GTATD()ATERLAHFLQRSSF-Gly(Me)-A-Ile(Me)-LSSTEVGSNT-Hyp-NH2] ({C20 diacid-γGlu}-R[Dap]GTATDATERLAHFLQRSSF[Sar]A[NMeI]LSSTEVGSNT[Hyp]-NH2; lactam 2-7), the EC50 in assay [1] stood at 299 nM; in assay [2] it was 279 nM.

`CC[C@H](C)[C@@H](C(=O)N[C@@H](CC(C)C)C(=O)N[C@@H](CO)C(=O)N[C@@H](CO)C(=O)N[C@H](C(=O)N[C@@H](CCC(=O)O)C(=O)N[C@H](C(=O)NCC(=O)N[C@@H](CO)C(=O)N[C@@H](CC(N)=O)C(=O)N[C@H](C(=O)N1C[C@H](O)C[C@H]1C(N)=O)[C@@H](C)O)C(C)C)[C@@H](C)O)N(C)C(=O)[C@H](C)NC(=O)CN(C)C(=O)[C@H](Cc1ccccc1)NC(=O)[C@H](CO)NC(=O)[C@H](CO)NC(=O)[C@H](CCCNC(=N)N)NC(=O)[C@H](CCC(N)=O)NC(=O)[C@H](CC(C)C)NC(=O)[C@H](Cc1ccccc1)NC(=O)[C@H](Cc1c[nH]cn1)NC(=O)[C@H](C)NC(=O)[C@H](CC(C)C)NC(=O)[C@H](CCCNC(=N)N)NC(=O)[C@H](CCC(=O)O)NC(=O)[C@@H](NC(=O)[C@H](C)NC(=O)[C@@H]1CC(=O)NCC[C@H](NC(=O)[C@H](CCCNC(=N)N)NC(=O)CC[C@H](NC(=O)CCCCCCCCCCCCCCCCCCC(=O)O)C(=O)O)C(=O)NCC(=O)N[C@@H]([C@@H](C)O)C(=O)N[C@@H](C)C(=O)N[C@@H]([C@@H](C)O)C(=O)N1)[C@@H](C)O` [Compound 46, [19CD]-isoGlu-R-Dab()-GTATD()ATERLAHFLQRSSF-Gly(Me)-A-Ile(Me)-LSSTEVGSNT-Hyp-NH2] ({C20 diacid-γGlu}-R[Dab]GTATDATERLAHFLQRSSF[Sar]A[NMeI]LSSTEVGSNT[Hyp]-NH2; lactam 2-7): the EC50 amounted to 7.5 nM in assay [1] and 5.5 nM in assay [2].

Consider `CC[C@H](C)[C@@H](C(=O)N[C@@H](CC(C)C)C(=O)N[C@@H](CO)C(=O)N[C@@H](CO)C(=O)N[C@H](C(=O)N[C@@H](CCC(=O)O)C(=O)N[C@H](C(=O)NCC(=O)N[C@@H](CO)C(=O)N[C@@H](CC(N)=O)C(=O)N[C@H](C(=O)N1C[C@H](O)C[C@H]1C(N)=O)[C@@H](C)O)C(C)C)[C@@H](C)O)N(C)C(=O)[C@H](C)NC(=O)CN(C)C(=O)[C@H](Cc1ccccc1)NC(=O)[C@H](CO)NC(=O)[C@H](CO)NC(=O)[C@H](CCCNC(=N)N)NC(=O)[C@H](CCC(N)=O)NC(=O)[C@H](CC(C)C)NC(=O)[C@H](Cc1ccccc1)NC(=O)[C@H](Cc1c[nH]cn1)NC(=O)[C@H](C)NC(=O)[C@H](CC(C)C)NC(=O)[C@H](CCCNC(=N)N)NC(=O)[C@H](CCC(=O)O)NC(=O)[C@@H](NC(=O)[C@H](C)NC(=O)[C@@H]1CC(=O)NCCC[C@H](NC(=O)[C@H](CCCNC(=N)N)NC(=O)CC[C@H](NC(=O)CCCCCCCCCCCCCCCCCCC(=O)O)C(=O)O)C(=O)NCC(=O)N[C@@H]([C@@H](C)O)C(=O)N[C@@H](C)C(=O)N[C@@H]([C@@H](C)O)C(=O)N1)[C@@H](C)O` [Compound 47, [19CD]-isoGlu-R-Orn()-GTATD()ATERLAHFLQRSSF-Gly(Me)-A-Ile(Me)-LSSTEVGSNT-Hyp-NH2] ({C20 diacid-γGlu}-R[Orn]GTATDATERLAHFLQRSSF[Sar]A[NMeI]LSSTEVGSNT[Hyp]-NH2; lactam 2-7), for which the EC50 is 10.8 nM in assay [1] and 7.7 nM in assay [2].

Regarding `CC[C@H](C)[C@@H](C(=O)N[C@@H](CC(C)C)C(=O)N[C@@H](CO)C(=O)N[C@@H](CO)C(=O)N[C@H](C(=O)N[C@@H](CCC(=O)O)C(=O)N[C@H](C(=O)NCC(=O)N[C@@H](CO)C(=O)N[C@@H](CC(N)=O)C(=O)N[C@H](C(=O)N1C[C@H](O)C[C@H]1C(N)=O)[C@@H](C)O)C(C)C)[C@@H](C)O)N(C)C(=O)[C@H](C)NC(=O)CN(C)C(=O)[C@H](Cc1ccccc1)NC(=O)[C@H](CO)NC(=O)[C@H](CO)NC(=O)[C@H](CCCNC(=N)N)NC(=O)[C@H](CCC(N)=O)NC(=O)[C@H](CC(C)C)NC(=O)[C@H](Cc1ccccc1)NC(=O)[C@H](Cc1c[nH]cn1)NC(=O)[C@H](C)NC(=O)[C@H](CC(C)C)NC(=O)[C@H](CCCNC(=N)N)NC(=O)[C@H](CCC(=O)O)NC(=O)[C@@H](NC(=O)[C@H](C)NC(=O)[C@@H]1CNC(=O)CCC[C@H](NC(=O)[C@H](CCCNC(=N)N)NC(=O)CC[C@H](NC(=O)CCCCCCCCCCCCCCCCCCC(=O)O)C(=O)O)C(=O)NCC(=O)N[C@@H]([C@@H](C)O)C(=O)N[C@@H](C)C(=O)N[C@@H]([C@@H](C)O)C(=O)N1)[C@@H](C)O` [Compound 50, [19CD]-isoGlu-R-Aad()-GTAT-Dap()-ATERLAHFLQRSSF-Gly(Me)-A-Ile(Me)-LSSTEVGSNT-Hyp-NH2] ({C20 diacid-γGlu}-R[Aad]GTAT[Dap]ATERLAHFLQRSSF[Sar]A[NMeI]LSSTEVGSNT[Hyp]-NH2; lactam 2-7), the values for the EC50 in assay [1] and in assay [2] were 3.3 nM and 1.5 nM, respectively.
